Values joined by “and” are separate entries in the source; they are usually repeats but may differ in a detail not shown here. Equal entries are not always repeated. Toxic doses and inconclusive results are not listed. No stated cut-off is given here; in the data, active means T/C of 150% or more; inactive means T/C below 125%.
Test system: L1210 leukemia ip in BDF1 mice, survival T/C
Assay: NCI In Vivo Anticancer Drug Screen. Data for tumor model L1210 Leukemia (intraperitoneal) in B6D2F1 (BDF1) mice
Settings: endpoint: mean survival time, higher = longer survival
Method in brief: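 Antitumor effect is assessed in tumor-bearing animals. Survival in the compound arm is compared with a vehicle-dosed control arm and expressed as their quotient.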

[1] = dose: 100.0 mg/kg/injection, schedule: Q04DX002 (ip), vehicle: Klucel (hydroxypropylcellulose) (HPC)
[2] = dose: 200.0 mg/kg/injection, schedule: Q04DX002 (ip), vehicle: Klucel (hydroxypropylcellulose) (HPC)
[3] = dose: 400.0 mg/kg/injection, schedule: Q04DX002 (ip), vehicle: Klucel (hydroxypropylcellulose) (HPC)
[4] = dose: 100.0 mg/kg/injection, schedule: Q01DX001 (ip), vehicle: Klucel (hydroxypropylcellulose) (HPC)
[5] = dose: 200.0 mg/kg/injection, schedule: Q01DX001 (ip), vehicle: Klucel (hydroxypropylcellulose) (HPC)

Measured: T/C

CC(C)=CCC/C(C)=C\COc1ccc(C(C)(C)C)cc1
inactive: [1] 96 % of control | [2] 100 % of control | [3] 89 % of control

CCCCSC1CC(=O)N(CCCC)C1=O (centres undefined)
inactive: dose: 75.0 mg/kg/injection, schedule: Q04DX003 (ip), vehicle: saline with Tween-80 100 % of control | dose: 100.0 mg/kg/injection, schedule: Q01DX001 (ip), vehicle: saline with Tween-80 103 % of control | dose: 150.0 mg/kg/injection, schedule: Q04DX003 (ip), vehicle: saline with Tween-80 90 % of control | dose: 200.0 mg/kg/injection, schedule: Q01DX001 (ip), vehicle: saline with Tween-80 98 % of control | dose: 300.0 mg/kg/injection, schedule: Q04DX003 (ip), vehicle: saline with Tween-80 92 % of control | dose: 400.0 mg/kg/injection, schedule: Q01DX001 (ip), vehicle: saline with Tween-80 101 % of control

Cc1cc(CCl)c(Br)cc1CCl
inactive: [1] 100 % of control | [2] 100 % of control | [3] 107 % of control

CCOC(=O)CSc1nc(N)cc(=O)[nH]1
inactive: dose: 50.0 mg/kg/injection, schedule: Q01DX001 (ip), vehicle: Klucel (hydroxypropylcellulose) (HPC) 110 % of control | [4] 117 % of control | [5] 110 % of control

Nc1ccc(Cl)nn1
inactive: dose: 25.0 mg/kg/injection, schedule: Q04DX002 (ip), vehicle: Klucel (hydroxypropylcellulose) (HPC) 97 % of control | dose: 50.0 mg/kg/injection, schedule: Q04DX002 (ip), vehicle: Klucel (hydroxypropylcellulose) (HPC) 97 % of control | [1] 100 % of control

CN=C1C=C(NC)C(F)(F)C1(F)F
inactive: dose: 6.25 mg/kg/injection, schedule: Q01DX009 (ip), vehicle: saline sonified 96 % of control | dose: 12.5 mg/kg/injection, schedule: Q01DX009 (ip), vehicle: saline sonified 100 % of control | dose: 12.5 mg/kg/injection, schedule: Q04DX003 (ip), vehicle: Klucel (hydroxypropylcellulose) (HPC) 98 % of control | dose: 25.0 mg/kg/injection, schedule: Q01DX009 (ip), vehicle: saline sonified 91 % of control | dose: 25.0 mg/kg/injection, schedule: Q04DX003 (ip), vehicle: Klucel (hydroxypropylcellulose) (HPC) 98 % of control | dose: 50.0 mg/kg/injection, schedule: Q04DX003 (ip), vehicle: Klucel (hydroxypropylcellulose) (HPC) 97 % of control

CC12CCCCC1CC/C(=C\c1ccco1)C2=O (centres undefined)
inactive: dose: 100.0 mg/kg/injection, schedule: Q01DX009 (ip), vehicle: saline 98 % of control | dose: 100.0 mg/kg/injection, schedule: Q04DX003 (ip), vehicle: saline 97 % of control | dose: 200.0 mg/kg/injection, schedule: Q01DX009 (ip), vehicle: saline 98 % of control | dose: 200.0 mg/kg/injection, schedule: Q04DX003 (ip), vehicle: saline 100 % of control | dose: 400.0 mg/kg/injection, schedule: Q01DX009 (ip), vehicle: saline 95 % of control | dose: 400.0 mg/kg/injection, schedule: Q04DX003 (ip), vehicle: saline 100 % of control

CCC(COC(=O)c1ccccc1)(COC(=O)c1ccccc1)[N+](=O)[O-]
inactive: [4] 105 % of control | [5] 95 % of control | dose: 400.0 mg/kg/injection, schedule: Q01DX001 (ip), vehicle: Klucel (hydroxypropylcellulose) (HPC) 108 % of control

Nc1ccc(S(=O)(=O)Nc2ccccn2)cc1
inactive: [1] 102 % of control | [2] 98 % of control | [3] 98 % of control

Cc1cccc2c(=O)c3ccccc3oc12
inactive: dose: 100.0 mg/kg/injection, schedule: Q01DX001 (ip), vehicle: saline 98 % of control and 104 % of control | dose: 200.0 mg/kg/injection, schedule: Q01DX001 (ip), vehicle: saline 95 % of control and 101 % of control | dose: 400.0 mg/kg/injection, schedule: Q01DX001 (ip), vehicle: saline 93 % of control and 97 % of control
